# Read-outs that look alike come from different tables or passages of the source.
# Assays:
# human CB1 receptors = human CB1 receptors (Homo sapiens, UniProt P21554); test: cell-based; type: cell-based; design: expressed in transfected cells; host or cells: mouse AtT20 FlpIn cells
# human CB2 receptors = biological target: T1, human CB2 receptors (Homo sapiens, UniProt P34972); test: Membrane potential (GIRK) assay in AtT20 cells, human CB2; type: cell-based; conditions: at 30 µM; normalized to 1 µM CP 55,940
# T1 construct: expressed in transfected cells; host or cells: mouse AtT20 FlpIn cells
# [1] = Pharmacokinetic analysis of CBN and metabolites in rat plasma and brain (LC-MS/MS); type: in vivo; conditions: for Kp: brain and plasma, 10 mg/kg, read-out: Brain/plasma ratio
# Method: Rats received 10 mg/kg CBN IP at approximately ZT13. Rats were then anesthetized with isoflurane at selected ZT points (13, 13.5, 14, 15, 17, 19, and 21) and blood was collected by terminal cardiac puncture. Brains were harvested, snap frozen on dry ice and plasma was isolated via centrifugation at 9000 × g for 10 min at 4 °C. All tissues were stored at −80 °C until analysis. CBN and metabolite concentrations in plasma and brain samples were assayed by liquid chromatography-tandem mass spectrometry (LC–MS/MS) using a using a Shimadzu Nexera LC-30AD UHPLC system coupled to a Shimadzu SPD-20AV photodiode array detector and a Shimadzu LC–MS-8040 triple-quadrupole mass spectrometer, equipped with an electrospray ionization (ESI) source (Shimadzu Corp.; Kyoto, Japan) as described previously.
# LC-MS/MS. Plasma samples (50 µL) were spiked with internal standard (12.5 µg/mL d3-THC, 5 µL) and protein precipitation was achieved by vortex-mixing with a 3x volume of ice-cold acetonitrile. The organic layer was isolated by centrifugation (6000 g for 10 min, 4 °C) and evaporated to dryness using N2 gas. Samples were reconstituted in acetonitrile (90 µL) and 0.1% ammonium formate in water (300 µL) for supported-liquid extraction (SLE) using dichloromethane and methyl tert-butyl ether Biotage Isolute SLE+ columns (Uppsala, Sweden) as previously described. Brain samples were prepared as described for plasma samples with minor modifications. Briefly, each half brain was homogenised in methanol: water (2:1, 10x, w/v) and spiked with d3-THC as an internal standard. Homogenates were centrifuged (20,000 g for 30 min, 4 °C). Supernatants were then extracted and prepared as described above.
# Quantification of CBN, 11-OH-CBN and 11-COOH-CBN in plasma and brain samples was performed by comparing experimental samples to eight-point standard curves prepared with known amounts of cannabinoid. Plasma and brain concentrations at each time point were averaged and pharmacokinetic parameters were calculated by noncompartmental analysis. Elimination rate constants were determined by linear regression of the terminal component of the concentration-time curve using GraphPad Prism 8.2 (La Jolla, USA). The log-linear trapezoidal method was used to calculate the area under concentration-time curve using equations described previously.
# mice = conditions: cited from earlier work; for NREM: mice
# [2] = design: method as in PMID 4337346; conditions: early human study; cited from earlier work
# rabbits = tested on: rabbits; design: method as in PMID 4355439; conditions: cited from earlier work
# rats = tested on: rats; design: method as in PMID 28934522, PMID 37507813; conditions: cited from earlier work
# male Long-Evans rats = test: Acute polysomnography (wireless EEG/EMG telemetry) in rats; conditions: for NREM delta power / REM theta power: EEG power spectra; for NREM delta power: overall effect; for NREM delta power / REM theta power / body temperature / locomotor activity counts: acute IP; for NREM delta power / REM theta power / total sleep time / % NREM sleep / % REM sleep / % active wake / % quiet wake / NREM sleep onset latency / REM bout duration / REM bout number / REM sleep onset latency / cumulative total sleep time / mean duration of NREM bouts per hour / number of NREM bouts per hour / total wake time / body temperature / locomotor activity counts: zolpidem 10 mg/kg; for total sleep time: acute IP at ZT13 (dark phase) vs vehicle, n = 8; for body temperature: subcutaneous; for body temperature / locomotor activity counts: telemetry
# rat CB1 receptors = tested on: rat CB1 receptors; design: method as in PMID 9379442; conditions: adenylyl cyclase inhibition; higher potency than CBN; efficacy not reported; cited from earlier work
# [3] = ip, rat plasma after CBN 10 mg/kg, post-dose, read-out: plasma Tmax (converted)
# [4] = rat brain after CBN 10 mg/kg IP, analyte as labelled
# [5] = rat brain after CBN 10 mg/kg IP, analyte as labelled, n = 4
# [6] = rat plasma after CBN 10 mg/kg IP, analyte as labelled
# [7] = rat plasma after CBN 10 mg/kg IP, analyte as labelled, n = 4
# [8] = rat, ip, rat, after CBN 10 mg/kg IP, analyte as labelled
# [9] = CBN 10, 30, 100 mg/kg, 11-OH-CBN 1, 3, 10 mg/kg
# [10] = acute IP at ZT13 vs vehicle, CBN 10, 30, 100 mg/kg, 11-OH-CBN 1, 3, 10 mg/kg
# Sequence of human CB1 receptors (P21554 whole entry): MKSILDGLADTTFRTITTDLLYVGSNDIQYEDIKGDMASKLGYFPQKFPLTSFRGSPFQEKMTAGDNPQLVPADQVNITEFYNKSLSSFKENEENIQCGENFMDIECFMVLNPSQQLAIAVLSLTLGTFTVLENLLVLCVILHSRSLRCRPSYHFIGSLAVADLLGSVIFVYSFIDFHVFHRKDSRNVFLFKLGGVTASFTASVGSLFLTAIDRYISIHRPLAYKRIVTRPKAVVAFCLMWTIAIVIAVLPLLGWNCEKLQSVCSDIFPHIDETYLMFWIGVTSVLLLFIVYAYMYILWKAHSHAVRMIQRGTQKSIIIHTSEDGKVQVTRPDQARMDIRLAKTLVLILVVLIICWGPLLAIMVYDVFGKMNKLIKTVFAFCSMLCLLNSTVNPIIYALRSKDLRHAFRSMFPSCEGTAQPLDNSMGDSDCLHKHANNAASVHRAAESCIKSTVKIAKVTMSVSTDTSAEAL
# T1 sequence (P34972 whole entry): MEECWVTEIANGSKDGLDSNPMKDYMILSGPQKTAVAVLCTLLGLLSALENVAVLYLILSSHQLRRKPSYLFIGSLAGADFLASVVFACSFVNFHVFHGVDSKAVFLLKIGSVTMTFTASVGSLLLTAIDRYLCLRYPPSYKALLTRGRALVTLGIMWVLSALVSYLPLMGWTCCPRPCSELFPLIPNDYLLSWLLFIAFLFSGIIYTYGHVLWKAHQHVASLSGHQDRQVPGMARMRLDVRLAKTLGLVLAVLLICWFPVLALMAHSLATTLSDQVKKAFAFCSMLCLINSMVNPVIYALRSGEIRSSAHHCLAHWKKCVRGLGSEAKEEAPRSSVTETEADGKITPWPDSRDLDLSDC
structure (smiles),measurement,setting,value
"CCCCCc1cc(O)c2c(c1)OC(C)(C)c1ccc(C(=O)O)cc1-2 [11-COOH-CBN, 11-carboxy-cannabinol]",response at CB1,"human CB1 receptors; 30 µM (highest concentration tested), normalized to 1 µM CP 55,940",43 ± 7%
same,activity at CB1 receptors (in words),human CB1 receptors; membrane potential assay,minimal activity
same,activity at CB2,human CB2 receptors,41 ± 2%
same,half-life,"[1]; ip, rat brain after CBN 10 mg/kg, read-out: brain T1/2 (converted)",3.48 h
same,Tmax,[1]; [3],1 h
same,half-life,"[1]; ip, rat plasma after CBN 10 mg/kg, read-out: t1/2 plasma (converted)",4.52 h
same,Brain AUC∞,[1]; [4],137 pg hour/mg brain
same,Brain t½,[1]; [4],3.48 h
same,Brain Cmax,[1]; [5],28 ± 5 pg/mg brain
same,Tmax,"[1]; rat brain after CBN 10 mg/kg IP, analyte as labelled, read-out: Brain tmax",2 h
same,Plasma AUC∞,[1]; [6],1.181 µg·h/mL
same,Plasma t½,[1]; [6],4.52 h
same,Cmax,[1]; [7],0.169 ± 0.038 µg/mL
same,Kp,[1]; [8],0.12
O=S(=O)(F)CCCCCc1ccc(O)cc1 [AM3506],REM,mice,suppressed
same,NREM,mice,increased
"CCCCCc1cc(O)c2c(c1)OC(C)(C)[C@@H]1CCC(C)=C[C@@H]21 [Δ^9-THC, Δ^9-tetrahydrocannabinol]",NREM and REM sleep,[2],tended to increase NREM but suppress REM sleep
same,NREM and REM sleep,rabbits,"early-phase NREM and REM suppression, followed by a later phase increase in NREM sleep"
same,REM,rats,suppressed
O=C(Oc1ccc([N+](=O)[O-])cc1)N1CCC(C(O)(c2ccc3c(c2)OCO3)c2ccc3c(c2)OCO3)CC1 [JZL184],REM,mice,suppressed
same,NREM,mice,increased
"Cc1ccc(-c2nc3ccc(C)cn3c2CC(=O)N(C)C)cc1 [zolpidem, reference compound]",NREM delta power at specific time points,"male Long-Evans rats; CBN 30 mg/kg and 100 mg/kg at ZT17 and 18, zolpidem 10 mg/kg at ZT13 and 14",increase
same,NREM delta power,male Long-Evans rats; [9],Neither CBN nor zolpidem had robust effects
same,REM theta power,male Long-Evans rats; [9],increased
same,total sleep time,male Long-Evans rats; [9],increased
same,% NREM sleep,male Long-Evans rats; [10],increased
same,% REM sleep,male Long-Evans rats; [10],did not affect
same,% active wake,male Long-Evans rats; [10],decreased
same,% quiet wake,male Long-Evans rats; [10],did not affect
same,NREM sleep onset latency,male Long-Evans rats; [10],decreased
same,REM bout duration,male Long-Evans rats; [10],did not affect
same,REM bout number,male Long-Evans rats; [10],did not affect
same,REM sleep onset latency,male Long-Evans rats; [10],did not affect
same,cumulative total sleep time,male Long-Evans rats; [10],increased
same,mean duration of NREM bouts per hour,male Long-Evans rats; [10],increased
same,number of NREM bouts per hour,male Long-Evans rats; [10],unaffected
same,total wake time,male Long-Evans rats; [10],decreased
same,body temperature,male Long-Evans rats; [9],did not robustly effect
same,locomotor activity counts,male Long-Evans rats; [9],decreased
"CCCCCc1cc(O)c2c(c1)OC(C)(C)c1ccc(CO)cc1-2 [11-OH-CBN, 11-hydroxy-cannabinol]",potency at rat CB1 receptors,rat CB1 receptors,low nM range
same,EC50,"human CB1 receptors; CB1, membrane potential assay, AtT20 cells, read-out: pEC50 (converted)",1 µM
same,Emax,"human CB1 receptors; CB1, normalized to 1 µM CP 55,940, AtT20 cells, read-out: maximal response (Emax)",75 ± 3%
same,activity at CB1 receptors (in words),human CB1 receptors; membrane potential assay,modestly potent partial agonist
same,NREM delta power,male Long-Evans rats; [9],significantly increased
same,REM theta power,male Long-Evans rats; [9],significantly increased
same,"delayed onset of action on % NREM sleep, time post-dosing",male Long-Evans rats; acute IP at ZT13,3 to 4 h
same,total sleep time,male Long-Evans rats; [9],did not significantly increase
same,cumulative NREM time,male Long-Evans rats; [10],biphasic effect
same,cumulative REM time,male Long-Evans rats; [10],suppressed I cumulative REM at the highest dose
same,% NREM sleep,male Long-Evans rats; [10],increased
same,% REM sleep,male Long-Evans rats; [10],biphasically affected
same,% active wake,male Long-Evans rats; [10],decreased
same,% quiet wake,male Long-Evans rats; [10],decreased
same,NREM sleep onset latency,male Long-Evans rats; [10],increased
same,REM bout duration,male Long-Evans rats; [10],did not affect
same,REM bout number,male Long-Evans rats; [10],affected
same,REM sleep onset latency,male Long-Evans rats; [10],increased
same,cumulative total sleep time,male Long-Evans rats; [10],biphasically influenced
same,mean duration of NREM bouts per hour,male Long-Evans rats; [10],significantly decreased
same,number of NREM bouts per hour,male Long-Evans rats; [10],increased
same,total wake time,male Long-Evans rats; [10],did not significantly reduce
same,body temperature,male Long-Evans rats; [9],decreased
same,locomotor activity counts,male Long-Evans rats; [9],biphasic effect
same,activity at CB2,human CB2 receptors,50 ± 6%
same,Tmax,"[1]; ip, rat brain after CBN 10 mg/kg, read-out: brain Tmax",2 h
same,Tmax,[1]; [3],1 h
same,half-life,"[1]; ip, rat, after CBN 10 mg/kg, similar in plasma and brain, read-out: half-life in plasma and brain (converted)",~2 h
same,Brain AUC∞,[1]; [4],1539 pg hour/mg brain
same,Brain Cmax,[1]; [5],419 ± 37 pg/mg brain
same,half-life,"[1]; rat brain after CBN 10 mg/kg IP, analyte as labelled, read-out: Brain t½ (converted)",2.08 h
same,Brain Cmax,[1]; rat brain following systemic administration of CBN,1.3 µM
same,Plasma AUC∞,[1]; [6],0.493 µg·h/mL
same,Cmax,[1]; [7],0.17 ± 0.018 µg/mL
same,half-life,"[1]; rat plasma after CBN 10 mg/kg IP, analyte as labelled, read-out: Plasma t½ (converted)",2.18 h
same,Brain/plasma ratio,"[1]; rat, after CBN 10 mg/kg IP, analyte as labelled",~3
same,Kp,[1]; [8],3.12
"CCCCCCC(C)(C)c1ccc([C@H]2CCC[C@@H](O)C2)c(O)c1 [CP 47,497]",NREM,mice,increased

# — publication PMC11736144, “A sleepy cannabis constituent: cannabinol and its active metabolite influence sleep architecture in rats” (Neuropsychopharmacology, 2024)
